Data reported in PubChem BioAssay AID212 (DTP/NCI, 2004).
Values joined by “and” are separate entries in the source; they are usually repeats but may differ in a detail not shown here. Equal entries are not always repeated. Records with an inconclusive call do not appear.

System: BDF1 mice, colon carcinoma 38 sc, T/C %
Assay: NCI In Vivo Anticancer Drug Screen. Data for tumor model Colon Carcinoma 38 (subcutaneous) in B6D2F1 (BDF1) mice
Conditions: endpoint: median tumor weight (est.), higher = larger tumour
In short: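 Ratio of survival or tumor size, compound-treated animals relative to vehicle controls, in tumor-bearing mice.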

[1] = dose: 6.25 mg/kg/injection, schedule: Q07DX002 (ip), vehicle: saline with Tween-80
[2] = dose: 50.0 mg/kg/injection, schedule: Q07DX002 (ip), vehicle: saline with Tween-80
[3] = dose: 12.0 mg/kg/injection, schedule: Q07DX002 (ip), vehicle: saline with Tween-80
[4] = dose: 12.5 mg/kg/injection, schedule: Q07DX002 (ip), vehicle: saline
[5] = dose: 50.0 mg/kg/injection, schedule: Q07DX002 (ip), vehicle: saline
[6] = dose: 800.0 mg/kg/injection, schedule: Q07DX002 (ip), vehicle: saline
[7] = dose: 12.5 mg/kg/injection, schedule: Q07DX003 (ip), vehicle: saline
[8] = dose: 25.0 mg/kg/injection, schedule: Q07DX003 (ip), vehicle: saline
[9] = dose: 100.0 mg/kg/injection, schedule: Q07DX003 (ip), vehicle: saline
[10] = dose: 200.0 mg/kg/injection, schedule: Q07DX003 (ip), vehicle: saline
[11] = dose: 400.0 mg/kg/injection, schedule: Q07DX002 (ip), vehicle: saline
[12] = dose: 400.0 mg/kg/injection, schedule: Q07DX003 (ip), vehicle: saline

C=C1C(C)C2C(Cc3ccccc3)NC(=O)C23C(OC(C)=O)C=CC(C)(O)C(=O)C(C)C/C=C/C3C1O (stereo not given)
T/C (dose: 0.31 mg/kg/injection, schedule: Q07DX003 (ip), vehicle: Klucel (hydroxypropylcellulose) (HPC)): 93 % of control
T/C (dose: 0.62 mg/kg/injection, schedule: Q07DX003 (ip), vehicle: Klucel (hydroxypropylcellulose) (HPC)): 53 % of control
T/C (dose: 1.25 mg/kg/injection, schedule: Q07DX003 (ip), vehicle: Klucel (hydroxypropylcellulose) (HPC)): 72 % of control
T/C (dose: 2.5 mg/kg/injection, schedule: Q07DX003 (ip), vehicle: Klucel (hydroxypropylcellulose) (HPC)): 100 % of control
T/C (dose: 5.0 mg/kg/injection, schedule: Q07DX003 (ip), vehicle: Klucel (hydroxypropylcellulose) (HPC)): 84 % of control
T/C (dose: 10.0 mg/kg/injection, schedule: Q07DX003 (ip), vehicle: Klucel (hydroxypropylcellulose) (HPC)): 105 % of control

C=C(C)C1C2CC3(C)C4(CO4)C4OC4C3(O)C1C(=O)O2 (stereo not given)
T/C (dose: 0.38 mg/kg/injection, schedule: Q07DX002 (ip), vehicle: Klucel (hydroxypropylcellulose) (HPC)): 81 % of control
T/C (dose: 0.75 mg/kg/injection, schedule: Q07DX002 (ip), vehicle: Klucel (hydroxypropylcellulose) (HPC)): 104 % of control
T/C (dose: 1.5 mg/kg/injection, schedule: Q07DX002 (ip), vehicle: Klucel (hydroxypropylcellulose) (HPC)): 112 % of control

BrC[P+](CBr)(CBr)CBr
T/C (dose: 3.12 mg/kg/injection, schedule: Q07DX002 (ip), vehicle: saline with Tween-80): 48 % of control
T/C [1]: 73 % of control
T/C [2]: 82 % of control
T/C (dose: 100.0 mg/kg/injection, schedule: Q07DX002 (ip), vehicle: saline with Tween-80): 75 % of control and 77 % of control

CC[C@@]1(O)C(=O)OCc2c1cc1n(c2=O)Cc2cc3ccccc3nc2-1
T/C (dose: 1.5 mg/kg/injection, schedule: Q07DX002 (ip), vehicle: saline with Tween-80): 100 % of control
T/C (dose: 3.0 mg/kg/injection, schedule: Q07DX002 (ip), vehicle: saline with Tween-80): 92 % of control
T/C (dose: 6.0 mg/kg/injection, schedule: Q07DX002 (ip), vehicle: saline with Tween-80): 75 % of control
T/C [3]: 90 % of control
T/C (dose: 24.0 mg/kg/injection, schedule: Q07DX002 (ip), vehicle: saline with Tween-80): 95 % of control

COc1cc2c(cc1O)N=C[C@@H]1CCC(O)N1C2=O (mixture of isomers)
T/C (dose: 1.0 mg/kg/injection, schedule: Q07DX002 (ip), vehicle: saline): 72 % of control and 78 % of control
T/C (dose: 1.1 mg/kg/injection, schedule: Q07DX002 (ip), vehicle: distilled water + Tween-80): 62 % of control
T/C (dose: 2.2 mg/kg/injection, schedule: Q07DX002 (ip), vehicle: distilled water + Tween-80): 85 % of control
T/C (dose: 4.0 mg/kg/injection, schedule: Q07DX002 (ip), vehicle: saline): 121 % of control and 105 % of control
T/C (dose: 4.5 mg/kg/injection, schedule: Q07DX002 (ip), vehicle: distilled water + Tween-80): 76 % of control
T/C (dose: 8.0 mg/kg/injection, schedule: Q07DX002 (ip), vehicle: saline): 81 % of control and 82 % of control
T/C (dose: 9.0 mg/kg/injection, schedule: Q07DX002 (ip), vehicle: distilled water + Tween-80): 66 % of control
T/C (dose: 16.0 mg/kg/injection, schedule: Q07DX002 (ip), vehicle: saline): 60 % of control

NC1CCCCC1N.O=S(=O)([O-])CCCNC1CCCCC1.O=S(=O)([O-])CCCNC1CCCCC1.[Pt+4]
T/C (dose: 0.78 mg/kg/injection, schedule: Q07DX002 (ip), vehicle: saline): 50 % of control
T/C (dose: 1.56 mg/kg/injection, schedule: Q07DX002 (ip), vehicle: saline): 38 % of control
T/C (dose: 3.12 mg/kg/injection, schedule: Q07DX002 (ip), vehicle: saline): 62 % of control
T/C (dose: 6.25 mg/kg/injection, schedule: Q07DX002 (ip), vehicle: saline): 25 % of control and 47 % of control
T/C [4]: 14 % of control

COc1ccc2[nH]c3ccc4cc[n+](CCN5CCC(C6CCN(CC[n+]7ccc8ccc9[nH]c%10ccc(OC)cc%10c9c8c7)CC6)CC5)cc4c3c2c1
T/C (dose: 25.0 mg/kg/injection, schedule: Q07DX002 (ip), vehicle: Klucel (hydroxypropylcellulose) (HPC)): 79 % of control
T/C (dose: 50.0 mg/kg/injection, schedule: Q07DX002 (ip), vehicle: Klucel (hydroxypropylcellulose) (HPC)): 70 % of control
T/C (dose: 100.0 mg/kg/injection, schedule: Q07DX002 (ip), vehicle: Klucel (hydroxypropylcellulose) (HPC)): 56 % of control

CN1C(=O)NC(c2ccc(Cl)cc2)(c2ccc(Cl)cc2)C1=O
T/C (dose: 12.5 mg/kg/injection, schedule: Q07DX002 (ip), vehicle: distilled water + Tween-80): 95 % of control
T/C (dose: 25.0 mg/kg/injection, schedule: Q07DX002 (ip), vehicle: distilled water + Tween-80): 105 % of control
T/C (dose: 50.0 mg/kg/injection, schedule: Q07DX002 (ip), vehicle: distilled water + Tween-80): 51 % of control
T/C (dose: 100.0 mg/kg/injection, schedule: Q07DX002 (ip), vehicle: distilled water + Tween-80): 97 % of control
T/C (dose: 200.0 mg/kg/injection, schedule: Q07DX002 (ip), vehicle: distilled water + Tween-80): 52 % of control
T/C (dose: 400.0 mg/kg/injection, schedule: Q07DX002 (ip), vehicle: distilled water + Tween-80): 58 % of control

COC1OC(CO)C(O)C(NC(=O)N(C)N=O)C1O (stereo not given)
T/C [4]: 113 % of control
T/C [5]: 95 % of control and 102 % of control
T/C [6]: 2 % of control and 9 % of control

ClCC[N+]12CC[N+](CCCl)(CC1)C2
T/C [4]: 115 % of control and 123 % of control
T/C [7]: 56 % of control
T/C (dose: 12.5 mg/kg/injection, schedule: Q07DX003 (ip), vehicle: water): 84 % of control
T/C [8]: 65 % of control
T/C (dose: 25.0 mg/kg/injection, schedule: Q07DX003 (ip), vehicle: water): 78 % of control
T/C (dose: 50.0 mg/kg/injection, schedule: Q07DX003 (ip), vehicle: saline): 72 % of control
T/C (dose: 50.0 mg/kg/injection, schedule: Q07DX003 (ip), vehicle: water): 44 % of control
T/C [9]: 123 % of control
T/C (dose: 100.0 mg/kg/injection, schedule: Q07DX003 (ip), vehicle: water): 45 % of control
T/C [10]: 70 % of control
T/C [11]: 47 % of control and 52 % of control
T/C [12]: 115 % of control

CC(/C=N/N=C(N)N)=N\N=C(N)N
T/C (dose: 6.25 mg/kg/injection, schedule: Q07DX003 (ip), vehicle: saline): 66 % of control
T/C [7]: 66 % of control
T/C [8]: 79 % of control
T/C [9]: 115 % of control

C[C@@H](CN1CC(=O)NC(=O)C1)N1CC(=O)NC(=O)C1
T/C (dose: 25.0 mg/kg/injection, schedule: Q07DX002 (ip), vehicle: saline): 87 % of control
T/C [5]: 95 % of control
T/C (dose: 100.0 mg/kg/injection, schedule: Q07DX002 (ip), vehicle: saline): 97 % of control
T/C [9]: 71 % of control
T/C (dose: 200.0 mg/kg/injection, schedule: Q07DX002 (ip), vehicle: saline): 110 % of control
T/C [10]: 71 % of control
T/C [11]: 93 % of control
T/C [12]: 71 % of control
T/C [6]: 66 % of control
T/C (dose: 800.0 mg/kg/injection, schedule: Q07DX003 (ip), vehicle: saline): 38 % of control

COc1cc2c[n+](C)c3c4cc5c(cc4ccc3c2cc1OC)OCO5
T/C (dose: 20.0 mg/kg/injection, schedule: Q07DX003 (ip), vehicle: saline with Tween-80): 110 % of control
T/C (dose: 40.0 mg/kg/injection, schedule: Q07DX003 (ip), vehicle: saline with Tween-80): 97 % of control

NC(=O)/C=C/c1c[nH]c2nccnc12
T/C (dose: 6.25 mg/kg/injection, schedule: Q07DX002 (ip), vehicle: water): 59 % of control
T/C (dose: 12.5 mg/kg/injection, schedule: Q07DX002 (ip), vehicle: water): 97 % of control
T/C (dose: 25.0 mg/kg/injection, schedule: Q07DX002 (ip), vehicle: water): 116 % of control
T/C (dose: 100.0 mg/kg/injection, schedule: Q07DX002 (ip), vehicle: water): 94 % of control

c1ccc2c(c1)-c1ccccc1C1NC21 (stereo not given)
T/C [3]: 104 % of control
T/C (dose: 25.0 mg/kg/injection, schedule: Q07DX002 (ip), vehicle: saline with Tween-80): 117 % of control
T/C [2]: 93 % of control

COC(=O)C(F)C(Br)C(=O)OC (stereo not given)
T/C [1]: 95 % of control and 99 % of control
T/C (dose: 12.5 mg/kg/injection, schedule: Q07DX002 (ip), vehicle: saline with Tween-80): 63 % of control
